Data set [1] in a line: Caco-2 permeability testing. The class given is in vitro ADME, human. The note with it: human, 90 min; for Papp A→B at 90 min, 10 µM: Caco-2, pH 7.4, Caco-2, A-B, read-out: Permeability (second figure of Efflux/permeability), Papp (A-B); for Papp B→A at 90 min, 10 µM: Caco-2, pH 7.4, Caco-2, B-A, read-out: Efflux (first figure of Efflux/permeability), Papp (B-A). From the text: Intestinal epithelium permeability is a critical characteristic that determines the rate and extent of human absorption and affects bioavailability of a drug candidate. Poor intestinal permeability leads to limited absorption. Generally, higher absorption is preferred. The Caco-2 cell line is a human colon adeno-carcinoma cell line that resembles the epithelial lining of the human small intestine. Several transport proteins that are expressed in human intestinal epithelium are also expressed in the Caco-2 cell model. Some transporter proteins are efflux systems which mediate the secretion of compounds from inside the cell back to the apical lumen (representative of the intestinal lumen), limiting overall absorption. In a permeability assay, the apparent permeability coefficient is measured between the apical to basolateral sides of a cell monolayer, Papp (A-B), and the basolateral to the apical side, Papp (B-A). Papp (A-B)<2×10^−6 cm/s is predictive of low permeability to the basolateral side, 2×10^−6 cm/s<Papp (A-B)<20×10^−6 cm/s is predictive of medium permeability, and Papp (A-B)>20×10^−6 cm/s is predictive of high permeability. In the B-A permeability assay, Papp (B-A) is measured and compounds evaluated for efflux potential. Together, these assay results are reported as a ratio of Papp (B-A) to Papp (A-B). Papp (B-A)/Papp (A-B)>3 are likely to be transported by one of the efflux systems, and have poor absorption. Papp (B-A)/Papp (A-B)<3 are likely to show reasonable intestinal absorption. An in vitro drug absorption assay suitable for use in predicting intestinal absorption of the compounds useful in the methods of the invention is described in this example. The embodiments of this assay described in this example were developed by Shanghai ChemPartner Co., Ltd., a corporation of China with its principal office located at 720 Cailun Road, Building No. 3, Shanghai 201203, China.
Caco-2 (ATCC, catalog No. HTB-37™) cells are cultured in growth medium (MEM+10% FBS+1% NEAA). The growth medium is prepared by adding 50 mL FBS and 5 mL NEAA to 445 mL of MEM or by adjusting the final volume according to actual needs. Trypsin-EDTA (Invitrogen, Cat #25200-072) is also used.
Hanks Balanced Salt Solution (HBSS, Invitrogen, Cat #14025-092) with 25 mM HEPES, pH 7.4, HBSS buffer with 0.2% DMSO (50 μL DMSO into 25 ml HBSS buffer), and HBSS buffer with 0.4% DMSO (100 μL DMSO into 25 ml HBSS buffer) are used.
10 mM stock solutions of a compound is prepared in DMSO and Lucifer Yellow in assay buffer using the formula (Actual Weight/Molecular Weight)/mL solvent=10 mM. Erythromycin, Metoprolol, and Atenolol are used as reference compounds. Donor solutions (10 μM for compounds and 5 μM for Lucifer Yellow) are prepared. For A-B, 4 μL of 10 mM compound stock solution and 2 μL of 10 mM Lucifer Yellow stock solution are loaded into 4 mL of HBSS buffer, and centrifuged (5 min, 4000 rpm) to precipitate undissolved particles. Supernatants are collected for compound dosing. For B-A, 4 μL (compounds) of 10 mM compound stock solution is added to 4 mL HBSS buffer with 0.2% DMSO, and centrifuged (5 min, 4000 rpm) to precipitate undissolved particles. Supernatants are collected for compound dosing.
Receiver solutions are prepared. For A-B, the solution is HBSS buffer with 0.4% DMSO. For B-A, 2 μL of 10 mM Lucifer Yellow stock solution is added to 4 mL of HBSS buffer with 0.2% DMSO. Compound solutions are prepared for standard curve (3 μM/1 μM/0.2 μM/0.04 μM/0.01 μM/0.005 μM):
1× solution: 3 μL of 20× solution (0.1-60 μM)+57 μL 0.4% DMSO HBSS+60 μL acetonitrile (ACN) with internal standard (IS, 200 ng/mL Osalmid). The assay was performed as described below
Stock cultures are maintained in MEM+10% FBS+1% NEAA, grown in 75 cm^2 tissue culture treated flasks and split (passed) 2 times weekly to maintain desired confluence. For maintenance passage, trypsinized cells are routinely distributed into new flasks at a standard passage ratio of 1:4. […]
(Passage across Caco-2 layers is used to estimate intestinal permeability.)

A short description of data set [2]: Liver microsome stability, mouse. The class given is in vitro ADME, CD-1 mouse. From the text:
(§1) Metabolic stability assays are designed to measure the stability of a test compound in a variety of assay matrices from human and animal species. From a metabolism perspective, a drug would be relatively stable, have a small first-pass effect, and maintain an effective concentration in blood for a reasonable period of time. A microsomal preparation from the liver contains all CYP isozymes and other membrane-bound drug metabolizing enzymes which are responsible for the metabolism for the majority of drugs in humans. Metabolic stability in liver microsomes can determine half-life (T1/2) and intrinsic clearance (Clint). The determination of Clint may be useful to determine whether metabolism is the major elimination pathway when it is compared to total body clearance in vivo. For high metabolic stability in liver microsomes: […] Human, Sprague Dawley rat, and CD-1 mouse liver microsome samples were purchased from BD Gentest. An in vitro metabolic stability assay suitable for use in predicting first pass metabolism of the compounds useful in the methods of the invention is described in this example. […] 6 mM NADPH in 0.1 M K-phosphate buffer is prepared by dissolving 25.1 mg of NADPH tetrasodium salt in 5 mL of K-phosphate buffer. […] The plate is pre-incubated at 37° C. for 10 minutes. 15 μL of NADPH stock solution (6 mM) is added to the wells designated for Time 60 and timed. At 30 min, 15 min, and 5 min, 15 μL of NADPH stock solution (6 mM) is added to the wells. At the end of incubation, 135 μL of ACN containing IS is added to all the wells (60 min, 30 min, 15 min, 5 min and 0 min). Then 15 μL of NADPH stock solution (6 mM) is added to the wells designated as Time 0.
(Microsomes from liver hold many membrane-bound enzymes, among them those of drug oxidation.)

A short description of data set [3]: Liver microsome stability, human. The class given is in vitro ADME.
Text: as §1

Data set [4] is described as follows: Liver microsome stability, rat. The class given is in vitro ADME, Sprague Dawley rat.
Text: as §1

With `CCC(CC)Oc1ccc2c(COCC3CCCNC3)nn(Cc3ccc(Cl)cc3)c2n1.O=C(O)C(F)(F)F` (stereo not shown) [compound 755], in data set [1], the Papp A→B at 90 min, 10 µM came out at 0.4 ×10⁻⁶ cm/s and the Papp B→A at 90 min, 10 µM stood at 0.2 ×10⁻⁶ cm/s.
With `Cn1nc(CCCN2CCCC2)c2ccc(N3CCCCCCC3)nc21` [compound 1171], the Papp A→B at 90 min, 10 µM in data set [1] was determined as 17 ×10⁻⁶ cm/s. Moreover, in data set [1], the Papp B→A at 90 min, 10 µM stood at 11 ×10⁻⁶ cm/s. Also, the results for the “mouse liver microsome (MLM), % parent remaining” value in data set [2] (after 15 min), in data set [2] (after 30 min) and in data set [2] (after 60 min) were 22 % parent remaining, 3 % parent remaining and 1 % parent remaining, respectively. The “human liver microsome (HLM, % parent remaining)” value came to 67 % parent remaining in data set [3] (after 15 min), 44 % parent remaining in data set [3] (after 30 min) and 23 % parent remaining in data set [3] (after 60 min). For the same compound, the “rat liver microsome (RLM), % parent remaining” value in data set [4] (after 15 min) is recorded as 1.2 % parent remaining; in data set [4] (after 30 min), 0.5 % parent remaining; in data set [4] (after 60 min), 0.3 % parent remaining.
Turning to `Cn1nc(C(=O)NC2CCNCC2)c2ccc(N3CCCCCC3)nc21.O=C(O)C(F)(F)F.O=C(O)C(F)(F)F` [compound 697], the Papp A→B at 90 min, 10 µM in data set [1] stood at 5.5 ×10⁻⁶ cm/s. Also, in data set [1], the Papp B→A at 90 min, 10 µM is 48 ×10⁻⁶ cm/s. For the same compound, the “mouse liver microsome (MLM), % parent remaining” value in data set [2] (after 15 min) is 85 % parent remaining; in data set [2] (after 30 min) it was 74 % parent remaining; in data set [2] (after 60 min) it was 44 % parent remaining. The “human liver microsome (HLM, % parent remaining)” value is 96 % parent remaining in data set [3] (after 15 min), 109 % parent remaining in data set [3] (after 30 min) and 108 % parent remaining in data set [3] (after 60 min). In addition, the “rat liver microsome (RLM), % parent remaining” value amounted to 69 % parent remaining in data set [4] (after 15 min), 42 % parent remaining in data set [4] (after 30 min) and 13 % parent remaining in data set [4] (after 60 min).
Take `Clc1ccc(Cn2nc(COCCCN3CCCCC3)c3ccc(N4CCCCCC4)nc32)cc1` [compound 749]: in data set [1], the Papp A→B at 90 min, 10 µM is 0.44 ×10⁻⁶ cm/s and the Papp B→A at 90 min, 10 µM is 0.52 ×10⁻⁶ cm/s.
Turning to `Cn1nc(C(=O)NC2CCN(CCN3CCCCC3)CC2)c2ccc(N3CCCCCC3)nc21` [EBP1047], the “mouse liver microsome (MLM), % parent remaining” value in data set [2] (after 15 min) is listed as 56 % parent remaining; in data set [2] (after 30 min), 29 % parent remaining; in data set [2] (after 60 min), 12 % parent remaining. The “human liver microsome (HLM, % parent remaining)” value in data set [3] (after 15 min) is reported as 78 % parent remaining; in data set [3] (after 30 min) it was 62 % parent remaining; in data set [3] (after 60 min), 34 % parent remaining. Further, in data set [3] (human vs rat liver, in words), the “liver stability predicted by in vitro PK profiles” value is “higher stability in human liver vs rat liver”. In addition, the entries for the “rat liver microsome (RLM), % parent remaining” value in data set [4] (after 15 min), in data set [4] (after 30 min) and in data set [4] (after 60 min) were 44 % parent remaining, 18 % parent remaining and 10 % parent remaining, respectively.
For `Cn1nc(C(=O)NC2CCN(CC3CCCCC3)CC2)c2ccc(N3CCCCCCC3)nc21` [compound 1062], in data set [1], the Papp A→B at 90 min, 10 µM worked out at 1.7 ×10⁻⁶ cm/s and the Papp B→A at 90 min, 10 µM stood at 0.6 ×10⁻⁶ cm/s.
For `O=C(NC1CCNCC1)c1nn(C(=O)C2CCCCC2)c2nc(N3CCCCCC3)ccc12.O=C(O)C(F)(F)F.O=C(O)C(F)(F)F.O=C(O)C(F)(F)F` [compound 989], in that order: 5 ×10⁻⁶ cm/s and 3 ×10⁻⁶ cm/s.

Source of the values: patent US20120232062A1, “AZAINDAZOLES TO TREAT FLAVIVIRIDAE VIRUS INFECTION” (EIGER BIOPHARMACEUTICALS, INC., priority 2009, published 2012).
